Assay results published in patent US6610516B1, “Cell culture process” (Genentech, Inc., priority 1999, dated 2003).

Columns and labels:
CHO cells = assay: Cell-cycle analysis (propidium iodide flow cytometry) of rht-PA-producing CHO cell cultures; assay type: cell-based, Chinese Hamster; conditions: T-flasks, 37° C., thymidine 250 μg/mL; for Cells in G0/G1 phase: 3-4 days, added at inoculation: quinidine 90 μM, control 53.91%; for Cells in S phase: control 34.37%
From the text: As used herein, a “cell-cycle inhibitor that blocks cells in the G0/G1 phase of growth” is a molecule that causes cells to accumulate in the G0/G1 phase of growth. This can be determined by cell cycle analysis, i.e., uniform suspensions of nuclei are stained with propidium iodide (PI) using the detergent-trypsin method of Vindelov et al., Cytometry, 3: 323-327 (1983) to determine relative cellular DNA content by flow cytometric analysis. Events are gated using doublet discrimination to exclude doublets, and the data are modeled using ModFit LT Cell Cycle Analysis™ software (Verity Software House).
(§1) The quantity of cells needed for a 0.2% packed cell volume seed density was centrifuged at approximately 700×g for 10 minutes, and resuspended in 25 cm^2 T-flasks in the appropriate fresh medium for each test case. The T-flasks were set up in triplicate with 5 mL in each flask and incubated for 3 to 4 days at 37° C. and 95% air 5% CO2. Sodium butyrate was added to a concentration of 0.375 mM, 0.75 mM, or 1.5 mM at the time of inoculation for the 25 cm^2 T-flasks. Cells were also cultured in spinner flasks at volumes of 100 ml with similar butyrate concentrations to the T-flask cases. For fermentor experiments, butyrate was added on the second day of the experiments. T-flask cultures were also carried out at 33° C. and 37° C. with no butyrate additions. […] T-PA site-occupancy was analyzed using the method of Example 1.
(§2) Cells were cultured as for the sodium butyrate experiment described in Example 2. Thymidine was dissolved in water and sterile filtered for a 33-36× stock solution. […] T-PA site-occupancy was analyzed using the method of Example 1.

[1] = tested on: t-PA site occupancy at Asn-184; assay: Type I/Type II t-PA assay (RP-HPLC) of supernatant from rht-PA-producing CHO cell cultures; assay type: cell-based, Chinese Hamster; conditions: for t-PA site occupancy compared to control with no cell-cycle inhibitor: 3-4 days, quinidine 90 μM, thymidine 250 μg/mL at inoculation (FIG. 9); for t-PA site-occupancy, effect of nucleotide sugar precursors: increased availability; for t-PA site-occupancy, effect of nucleotide sugar precursors / Decrease of t-PA site occupancy at 500 µM: days 4-6 (FIG. 12); for Decrease of t-PA site occupancy at 500 µM: Cricetulus griseus, CHO, 0.5 mM each; for t-PA site-occupancy, effect of further butyrate increase: 1.5 mM butyrate; for Increase of t-PA site-occupancy: 1, 10 or 100 nM hormone, day 7 (FIG. 13)
Protocol: Type I/Type II t-PA assay:
1. Thaw cell culture supernatant sample (If whole broth, spin out cells in centrifuge.)
2. Add 2 μl freshly thawed plasminogen to 400 μl of sample.
3. Incubate at 37° C. for 60 minutes.
4. Add 20 μl freshly-thawed 1 M DTT and 400 μl 8 M guanidine-HCl/50 mM TRIS/3.2 mM EDTA solution.
5. Incubate at 37° C. for 15 minutes.
6. Transfer to vial and load 250 μl for assay on HP 1090™ HPLC using the following conditions:
ZORBAX™ C8 column at 40° C.;
Monitoring of eluents by fluorescence (excitation at 275 nm, emission at 340 nm);
Running each sample with the following 70-minute method where eluent A is 0.1% trifluoroacetic acid (TFA) in water and eluent B is 0.1% TFA in acetonitrile:
5 to 35 min.—a linear gradient from 75% A to 60% A
45 min. to 70 min.—75% A to re-equilibrate the column
Type I/Type II fragments elute after approximately 25 minutes, and peak areas are integrated to determine relative quantities.
Recombinant ht-PA-producing CHO cells were carried in spinner flasks passaged every 3 or 4 days (at a density of 0.1% packed cell volume (PCV)) in selective medium (PS-20 basal medium supplemented with […] methotrexate, 10 mg/L recombinant human insulin (rh-insulin), 0.1 ml/L trace elements, and 0.05 ml/L lipid-ethanol). Sufficient culture was removed to seed 15 ml of medium at 0.2% PCV, and placed in a 50 ml sterile Falcon tube. The culture was centrifuged for 10 minutes at 700-1000 rpm and the supernatant was poured off. Upon addition of 15 ml of fresh selective medium, the culture was agitated gently to resuspend cells. Five ml of culture was placed in three T-25 flasks (25 cm^2 T-flasks). The caps were left loosened to allow equilibration with incubator atmosphere and the flasks were placed in a 33° C. or 31° C. incubator with 5% carbon dioxide. After 5 to 8 days of incubation, the cells were counted using a hemacytometer and/or by checking packed cell volume, and viability was checked using trypan blue. The culture was removed from the flasks, centrifuged for 10 minutes at 2000-2200 rpm, and the supernatant was assayed for rht-PA glycosylation. Alternatively to the T-25 flasks, the cells were cultured using 60-mm cell culture plates in triplicates.
The mini-fermentor experiments were performed under standard t-PA production conditions in fed-batch mode as noted herein in 5-liter stirred tank bioreactors (Applikon, Foster City, Calif.). The temperature was shifted to 33° C. or 31° C. on day 2 of the production phase.
as §1, §2
All experiments were done in 60-mm culture dishes using the procedure described in Example 1 except that a Mn salt, Fe salt, nucleotide sugar precursor, or hormone was added to the growth medium during the growth phase, with Mn or Fe salt or nucleotide sugar precursor added on day 1.

fibrin = conditions: in vitro; cited from earlier work

C=C[C@H]1C[N@@]2CC[C@H]1C[C@@H]2[C@@H](O)c1ccnc2ccc(OC)cc12 [Quinidine, quinidine]
Cells in G0/G1 phase (CHO cells): 67.34% at 84.65
Cells in G0/G1 phase (CHO cells; listed as quinidine): 67%
Cells in S phase (CHO cells; quinidine 90 μM): 24.11%
t-PA site occupancy compared to control with no cell-cycle inhibitor ([1]; T-flasks, 37° C.): increased site occupancy

Cc1cn([C@H]2C[C@H](O)[C@@H](CO)O2)c(=O)[nH]c1=O [Thymidine, thymidine]
Cells in G0/G1 phase (CHO cells): 32.58% at 84.60
Cells in G0/G1 phase (CHO cells; listed as thymidine): 33%
Cells in G2-M phase (CHO cells; quinidine 90 μM, control 11.72%): 10.09% at 165.36
Cells in S phase (CHO cells; quinidine 90 μM): 57.33%
t-PA site occupancy compared to control with no cell-cycle inhibitor ([1]; T-flasks, 37° C.): decreased site occupancy
t-PA site-occupancy, effect of nucleotide sugar precursors ([1]; 60-mm dishes, 37° C.): did not improve site-occupancy

NCC(=O)O [glycine]
t-PA site-occupancy, effect of nucleotide sugar precursors ([1]; 60-mm dishes, 37° C.): did not improve site-occupancy

Nc1nc2c(ncn2[C@@H]2O[C@H](CO)[C@@H](O)[C@H]2O)c(=O)[nH]1 [guanosine]
Decrease of t-PA site occupancy at 500 µM ([1]; 60-mm dishes, 37° C.): ~2%

O=c1[nH]cnc2nc[nH]c12 [hypoxanthine]
t-PA site-occupancy, effect of nucleotide sugar precursors ([1]; 60-mm dishes, 37° C.): did not improve site-occupancy

[Cl][Mn][Cl] [manganese, MnCl2]
Increase of t-PA Type I content (site-occupancy) over 3 nM control ([1]; MnCl2 10 nM-100 μM, 60-mm dishes, 37° C., days 4-6 (FIG. 10)): about 2.5%

CCCC(=O)[O-].[Na+] [sodium butyrate]
Increase of Type I content compared to no butyrate ([1]; 0.75 mM butyrate, 60-mm culture plates (FIG. 6)): about 1%
t-PA site-occupancy, effect of further butyrate increase ([1]; 31° C., 60-mm culture plates (FIG. 6)): increased it
t-PA site-occupancy, effect of further butyrate increase ([1]; 37° C. and 33° C., 60-mm culture plates (FIG. 6)): lowered site-occupancy
t-PA site-occupancy, effect of butyrate ([1]; 0.375 to 1.5 mM at inoculation, T-flasks, 37° C. (FIG. 5)): increased t-PA site-occupancy
Type I content, effect of increasing butyrate from 0.75 to 1.5 mM ([1]; 5-liter bioreactors, days 5-7, 37° C. and 33° C. (FIG. 7)): decreased the Type I content

N[C@@H](Cc1cc(I)c(Oc2cc(I)c(O)c(I)c2)c(I)c1)C(=O)O [thyroxine]
Increase of t-PA site-occupancy ([1]; 60-mm dishes, 37° C.): about 2%

N[C@@H](Cc1cc(I)c(Oc2ccc(O)c(I)c2)c(I)c1)C(=O)O [tri-iodothyronine]
Increase of t-PA site-occupancy ([1]; 60-mm dishes, 37° C.): about 2%

O=c1ccn([C@@H]2O[C@H](CO)[C@@H](O)[C@H]2O)c(=O)[nH]1 [uridine]
Decrease of t-PA site occupancy at 500 µM ([1]; 60-mm dishes, 37° C.): ~2%

ferric citrate
Increase of t-PA site occupancy ([1]; 10-100 μM ferric citrate, 60-mm dishes, 37° C., days 4-6 (FIG. 11)): up to 4%

t-PA: human tissue-type plasminogen activator, recombinant, produced in CHO cells; mixture of Type I and Type II glycoforms
Kd of binding to fibrin (fibrin): in the μM range
